Measured values reported in ChEMBL document CHEMBL1201862, “PubChem BioAssay data set” (2004).
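Exposure lasted 48 hours, with cells grown in 96-well plates and compounds tested at five concentrations. GI50 = concentration required for 50% inhibition of growth.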 Active and inactive are the calls of the source. Rule as the data show it: active = GI50 up to about 1.1 µM and inactive = higher.

Assays:
Experiment in all cases: NCI tumour cell line growth inhibition, 48 h
HOP-92 = system: HOP-92
786-0 = system: 786-0
OVCAR-8 = system: OVCAR-8
LOX IMVI = system: LOX IMVI
SW-620 = system: SW-620
OVCAR-5 = system: OVCAR-5
EKVX = system: EKVX
SK-MEL-2 = system: SK-MEL-2
RPMI-8226 = system: RPMI-8226
BT-549 = system: BT-549
COLO 205 = system: COLO 205
DU-145 = system: DU-145
HOP-62 = system: HOP-62
A549 = system: A549
NCI-H23 = system: NCI-H23
K562 = system: K562
SN12C = system: SN12C
MDA-N = system: MDA-N

Measured: GI50

COC(=O)[C@]1(c2cc3ccccc3[nH]2)CC2CNC1C1OC(C)(C)OC21 (stereo partly drawn)
inactive: HOP-92 > 100 µM | 786-0 > 100 µM | OVCAR-8 > 100 µM | LOX IMVI > 100 µM | SW-620 > 100 µM | OVCAR-5 > 100 µM | EKVX > 100 µM | SK-MEL-2 > 100 µM | RPMI-8226 61.4 µM | BT-549 > 100 µM | COLO 205 > 100 µM | DU-145 > 100 µM | HOP-62 > 100 µM | A549 > 100 µM | NCI-H23 > 100 µM | K562 73.6 µM | SN12C > 100 µM | MDA-N 75.9 µM

CN(C)/C=N/S(=O)(=O)c1nn2c(C=O)c(-c3ccccc3)nc2s1
inactive: HOP-92 17.5 µM | 786-0 5.62 µM | OVCAR-8 8.41 µM | LOX IMVI 14.7 µM | SW-620 3.76 µM | OVCAR-5 47.1 µM | EKVX 30.5 µM | SK-MEL-2 43 µM | RPMI-8226 3.43 µM | BT-549 4.65 µM | COLO 205 4.53 µM | DU-145 23.4 µM | HOP-62 47.2 µM | A549 26.6 µM | NCI-H23 19.7 µM | K562 3.9 µM | SN12C 13.5 µM | MDA-N 10.2 µM

CC(C)(C)OC(=O)NCCCCC(N)C(N)=O (stereo not drawn)
inactive: HOP-92 > 100 µM | 786-0 > 100 µM | OVCAR-8 > 100 µM | LOX IMVI > 100 µM | SW-620 > 100 µM | OVCAR-5 > 100 µM | EKVX > 100 µM | SK-MEL-2 > 100 µM | RPMI-8226 > 100 µM | BT-549 > 100 µM | COLO 205 > 100 µM | DU-145 > 100 µM | HOP-62 > 100 µM | A549 > 100 µM | NCI-H23 > 100 µM | K562 > 100 µM | SN12C > 100 µM | MDA-N > 100 µM

CC(C)/C(Cl)=N/OC(=O)Nc1cccc(C(F)(F)F)c1
inactive: HOP-92 1.75 µM | 786-0 2.52 µM | OVCAR-8 14.5 µM | LOX IMVI 2.51 µM | SW-620 1.35 µM | OVCAR-5 18.9 µM | EKVX 2.61 µM | SK-MEL-2 17.8 µM | RPMI-8226 1.56 µM | BT-549 3.64 µM | COLO 205 2.07 µM | DU-145 17.3 µM | HOP-62 18.1 µM | A549 19.3 µM | NCI-H23 14.5 µM | K562 1.54 µM | SN12C 7.1 µM | MDA-N 10.6 µM

O=c1c(Cc2ccc(Cl)cc2)nnc2sc(-c3ccc(-c4ccc(F)c(Cl)c4)o3)nn12
inactive: HOP-92 58.7 µM | 786-0 71 µM | OVCAR-8 58.7 µM | LOX IMVI 70.5 µM | SW-620 54.5 µM | OVCAR-5 56.1 µM | EKVX 24.5 µM | SK-MEL-2 51.4 µM | RPMI-8226 > 100 µM | BT-549 78.2 µM | COLO 205 57.3 µM | DU-145 > 100 µM | HOP-62 > 100 µM | A549 51.3 µM | NCI-H23 44.5 µM | K562 37.6 µM | SN12C 42.7 µM | MDA-N 95.3 µM

CC(=O)N1C(Nc2nccs2)CCN1c1ccccc1 (stereo not drawn)
inactive: HOP-92 > 10 µM | 786-0 > 10 µM | OVCAR-8 > 10 µM | LOX IMVI > 10 µM | SW-620 > 10 µM | OVCAR-5 > 10 µM | EKVX > 10 µM | SK-MEL-2 > 10 µM | RPMI-8226 > 10 µM | BT-549 > 10 µM | COLO 205 > 10 µM | DU-145 > 10 µM | HOP-62 > 10 µM | A549 > 10 µM | NCI-H23 > 10 µM | K562 > 10 µM | SN12C > 10 µM | MDA-N > 10 µM

COc1cccc(/C=C/c2cnc3ccccc3n2)c1OC
inactive: HOP-92 23.7 µM | 786-0 39.1 µM | OVCAR-8 29.7 µM | LOX IMVI 36.6 µM | SW-620 52.1 µM | OVCAR-5 72.6 µM | EKVX 33 µM | SK-MEL-2 28.8 µM | RPMI-8226 41.8 µM | BT-549 17.4 µM | COLO 205 48.3 µM | DU-145 60.7 µM | HOP-62 24.7 µM | A549 40.7 µM | NCI-H23 31.9 µM | K562 71 µM | SN12C 39.5 µM | MDA-N 61.1 µM

CC(C)(C)c1cc(Br)c(O)c(CN(Cc2cc(C(C)(C)C)cc(Br)c2O)C2CCCCC2)c1
inactive: HOP-92 15.5 µM | 786-0 14.6 µM | OVCAR-8 15.1 µM | LOX IMVI 16.3 µM | SW-620 13.1 µM | OVCAR-5 15.7 µM | EKVX 14.8 µM | SK-MEL-2 13.1 µM | RPMI-8226 11.8 µM | BT-549 15.8 µM | COLO 205 11.2 µM | DU-145 13.9 µM | HOP-62 15.2 µM | A549 14.1 µM | NCI-H23 13.5 µM | K562 13.3 µM | SN12C 14.8 µM | MDA-N 14.5 µM

CC(=O)Oc1ccc(/C=C/C(=O)O[C@@H](C(=O)O)[C@@H](OC(=O)/C=C/c2ccc(OC(C)=O)c(OC(C)=O)c2)C(=O)O)cc1OC(C)=O
inactive: HOP-92 > 100 µM | 786-0 > 100 µM | OVCAR-8 > 100 µM | LOX IMVI > 100 µM | SW-620 > 100 µM | OVCAR-5 > 100 µM | EKVX > 100 µM | SK-MEL-2 > 100 µM | RPMI-8226 > 100 µM | BT-549 > 100 µM | COLO 205 > 100 µM | DU-145 > 100 µM | HOP-62 > 100 µM | A549 > 100 µM | NCI-H23 > 100 µM | K562 > 100 µM | SN12C > 100 µM | MDA-N > 100 µM

COc1nc2c(c(=O)[nH]1)N=C(c1ccc([N+](=O)[O-])cc1)CC(c1ccccc1)N2 (stereo not drawn)
inactive: HOP-92 84.3 µM | 786-0 > 100 µM | OVCAR-8 > 100 µM | LOX IMVI 38.4 µM | SW-620 > 100 µM | OVCAR-5 > 100 µM | EKVX 95.9 µM | SK-MEL-2 > 100 µM | RPMI-8226 44.1 µM | BT-549 > 100 µM | COLO 205 > 100 µM | DU-145 > 100 µM | HOP-62 > 100 µM | A549 83.4 µM | NCI-H23 69.8 µM | K562 58.2 µM | SN12C > 100 µM | MDA-N > 100 µM

COC(=O)/C(C#N)=C(/NCCN)Nc1ccccc1
inactive: HOP-92 > 100 µM | 786-0 > 100 µM | OVCAR-8 > 100 µM | LOX IMVI > 100 µM | SW-620 > 100 µM | OVCAR-5 > 100 µM | EKVX > 100 µM | SK-MEL-2 > 100 µM | RPMI-8226 > 100 µM | BT-549 > 100 µM | COLO 205 > 100 µM | DU-145 > 100 µM | HOP-62 > 100 µM | A549 > 100 µM | NCI-H23 > 100 µM | K562 > 100 µM | SN12C > 100 µM | MDA-N > 100 µM
